Test results from patent US20250129430A1, “HIGH ATP-AFFINITY PROTEIN AS THERAPEUTIC TARGET FOR INTRACTABLE CANCER MOLECULAR SUBTYPES AND INHIBITOR THEREOF” (VeraVerse Co., Ltd., priority 2021, published 2025).

Tests used:
Test in all cases: Cell viability drug screen, 12-point dose-response AUC
Type in all cases: cell-based, human
[1] = test system: FU97; set-up: Average Area Under the Viability Curve (AUC), AUC norm value: scale not given here; conditions: FU97 cells, 72 hours; for area under the viability curve (AUC), normalized: 12-point dose-response
Summary of the method: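 Trapezoidal AUC of a 12-point, DMSO-normalized dose-response curve. Luminescent viability was measured after 72 h of exposure at 37° C to half-log serial dilutions (0.5% DMSO control), dosed 24 h after plating FU97 cells at 5×10^3 per well.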

[2] = test system: SNU16; conditions: SNU16 cells, 72 hours; for area under the viability curve (AUC), normalized: 12-point dose-response
Summary of the method: (§1)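 Luminescent viability readings, taken 15 min after reagent addition at room temperature, were normalized to the 0.5% DMSO control to build 12-point dose-response curves. Trapezoidal integration gave the AUC. Cells had been plated at 5×10^3 per well and then exposed to half-log dilutions for 72 h.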

[3] = test system: MKN1; conditions: MKN1 cells, 72 hours; for area under the viability curve (AUC), normalized: 12-point dose-response
Summary of the method: as §1

[4] = test system: SK4; conditions: 72 hours; for area under the viability curve (AUC), normalized: SK4 cells, 12-point dose-response
Summary of the method: as §1

[5] = test system: MKN45; conditions: 72 hours; for area under the viability curve (AUC), normalized: MKN45 cells, 12-point dose-response
Summary of the method: as §1

[6] = test system: Hs746T; conditions: 72 hours; for area under the viability curve (AUC), normalized: Hs746T cells, 12-point dose-response
Summary of the method: as §1

[7] = test system: YCC2; conditions: YCC2 cells, 72 hours; for area under the viability curve (AUC), normalized: 12-point dose-response
Summary of the method: as §1

[8] = test system: SNU1750; conditions: 72 hours; for area under the viability curve (AUC), normalized: SNU1750 cells, 12-point dose-response
Summary of the method: as §1

[9] = test system: NCC19; conditions: NCC19 cells, 72 hours; for area under the viability curve (AUC), normalized: 12-point dose-response
Summary of the method: as §1

[10] = test system: NCC20; conditions: NCC20 cells, 72 hours; for area under the viability curve (AUC), normalized: 12-point dose-response
Summary of the method: as §1

[11] = test system: SNU719; conditions: SNU719 cells, 72 hours; for area under the viability curve (AUC), normalized: 12-point dose-response
Summary of the method: as §1

[12] = test system: SNU620; conditions: SNU620 cells, 72 hours; for area under the viability curve (AUC), normalized: 12-point dose-response
Summary of the method: as §1

[13] = test system: OCUM1; conditions: OCUM1 cells, 72 hours; for area under the viability curve (AUC), normalized: 12-point dose-response
Summary of the method: as §1

[14] = test system: AGS; conditions: 72 hours; for area under the viability curve (AUC), normalized: AGS cells, 12-point dose-response
Summary of the method: as §1

[15] = test system: SNU1; conditions: SNU1 cells, 72 hours; for area under the viability curve (AUC), normalized: 12-point dose-response
Summary of the method: as §1

[16] = test system: SNU668; conditions: 72 hours; for area under the viability curve (AUC), normalized: SNU668 cells, 12-point dose-response
Summary of the method: as §1

[17] = test system: SNU638; conditions: SNU638 cells, 72 hours; for area under the viability curve (AUC), normalized: 12-point dose-response
Summary of the method: as §1

[18] = test system: NCC59; conditions: NCC59 cells, 72 hours; for area under the viability curve (AUC), normalized: 12-point dose-response
Summary of the method: as §1

[19] = test system: SNU484; conditions: 72 hours; for area under the viability curve (AUC), normalized: SNU484 cells, 12-point dose-response
Summary of the method: as §1

[20] = test system: YCC3; conditions: YCC3 cells, 72 hours; for area under the viability curve (AUC), normalized: 12-point dose-response
Summary of the method: as §1

[21] = test system: MKN28; conditions: MKN28 cells, 72 hours; for area under the viability curve (AUC), normalized: 12-point dose-response
Summary of the method: as §1

[22] = test system: SNU1967; conditions: SNU1967 cells, 72 hours; for area under the viability curve (AUC), normalized: 12-point dose-response
Summary of the method: as §1

[23] = test system: KATO3; conditions: KATO3 cells, 72 hours; for area under the viability curve (AUC), normalized: 12-point dose-response
Summary of the method: as §1

[24] = test system: SNU216; conditions: 72 hours; for area under the viability curve (AUC), normalized: SNU216 cells, 12-point dose-response
Summary of the method: as §1

[25] = test system: SNU601; conditions: SNU601 cells, 72 hours; for area under the viability curve (AUC), normalized: 12-point dose-response
Summary of the method: as §1

[26] = test system: MKN74; conditions: MKN74 cells, 72 hours; for area under the viability curve (AUC), normalized: 12-point dose-response
Summary of the method: as §1

[27] = test system: YCC11; conditions: 72 hours; for area under the viability curve (AUC), normalized: YCC11 cells, 12-point dose-response
Summary of the method: as §1

[28] = test system: NCC24; conditions: NCC24 cells, 72 hours; for area under the viability curve (AUC), normalized: 12-point dose-response
Summary of the method: as §1

[29] = test system: NCI_N87; conditions: NCI_N87 cells, 72 hours; for area under the viability curve (AUC), normalized: 12-point dose-response
Summary of the method: as §1

CCCOc1ccc2nc(NC(=O)OC)[nH]c2c1 [Oxybendazole]
area under the viability curve (AUC), normalized [1]: −0.3548
area under the viability curve (AUC), normalized [2]: 2.326
area under the viability curve (AUC), normalized [3]: −0.5859
area under the viability curve (AUC), normalized [4]: −0.1414
area under the viability curve (AUC), normalized [5]: 2.187
area under the viability curve (AUC), normalized [6]: 1.204
area under the viability curve (AUC), normalized [7]: 0.7894
area under the viability curve (AUC), normalized [8]: 0.4952
area under the viability curve (AUC), normalized [9]: 1.219
area under the viability curve (AUC), normalized [10]: −0.7466
area under the viability curve (AUC), normalized [11]: 3.17
area under the viability curve (AUC), normalized [12]: −1.528
area under the viability curve (AUC), normalized [13]: 1.059
area under the viability curve (AUC), normalized [14]: −1.064
area under the viability curve (AUC), normalized [15]: −1.007
area under the viability curve (AUC), normalized [16]: −0.3638
area under the viability curve (AUC), normalized [17]: −0.2808
area under the viability curve (AUC), normalized [18]: 2.518
area under the viability curve (AUC), normalized [19]: −0.00299
area under the viability curve (AUC), normalized [20]: 2.897
area under the viability curve (AUC), normalized [21]: −0.1307
area under the viability curve (AUC), normalized [22]: 0
area under the viability curve (AUC), normalized [23]: 3.472
area under the viability curve (AUC), normalized [24]: 1.744
area under the viability curve (AUC), normalized [25]: 1.095
area under the viability curve (AUC), normalized [26]: 0.4498
area under the viability curve (AUC), normalized [27]: −0.2902
area under the viability curve (AUC), normalized [28]: −1.131
area under the viability curve (AUC), normalized [29]: −0.1928

CC(C)C[C@H](NC(=O)[C@H](Cc1ccccc1)NC(=O)c1cnccn1)B(O)O [Bortezomib (Velcade), Bortezomib]
area under the viability curve (AUC), normalized [1]: 0.01494
area under the viability curve (AUC), normalized [2]: −0.0987
area under the viability curve (AUC), normalized [3]: 0.3149
area under the viability curve (AUC), normalized [4]: 0.3944
area under the viability curve (AUC), normalized [5]: 0.1641
area under the viability curve (AUC), normalized [6]: −0.9394
area under the viability curve (AUC), normalized [7]: 0.6953
area under the viability curve (AUC), normalized [8]: −1.326
area under the viability curve (AUC), normalized [9]: −0.6969
area under the viability curve (AUC), normalized [10]: −0.1078
area under the viability curve (AUC), normalized [11]: 1.081
area under the viability curve (AUC), normalized [12]: −0.6115
area under the viability curve (AUC), normalized [13]: 2.346
area under the viability curve (AUC), normalized [14]: −0.1894
area under the viability curve (AUC), normalized [15]: −0.3028
area under the viability curve (AUC), normalized [16]: 1.358
area under the viability curve (AUC), normalized [17]: 0.06564
area under the viability curve (AUC), normalized [18]: 0.8821
area under the viability curve (AUC), normalized [19]: −0.6338
area under the viability curve (AUC), normalized [20]: 2.791
area under the viability curve (AUC), normalized [21]: −0.416
area under the viability curve (AUC), normalized [22]: −0.8453
area under the viability curve (AUC), normalized [23]: 1.082
area under the viability curve (AUC), normalized [24]: 0.4223
area under the viability curve (AUC), normalized [25]: −0.07383
area under the viability curve (AUC), normalized [26]: 0
area under the viability curve (AUC), normalized [27]: −0.6649
area under the viability curve (AUC), normalized [28]: −0.3911
area under the viability curve (AUC), normalized [29]: 1.569

CC(C)C[C@H](NC(=O)[C@H](CCc1ccccc1)NC(=O)CN1CCOCC1)C(=O)N[C@@H](Cc1ccccc1)C(=O)N[C@@H](CC(C)C)C(=O)[C@@]1(C)CO1 [Carfilzomib (PR-171), Carfilzomib]
Average Area Under the Viability Curve (AUC), AUC norm value [1]: −0.1687
Average Area Under the Viability Curve (AUC), AUC norm value [2]: −1.3183
Average Area Under the Viability Curve (AUC), AUC norm value [3]: 0.1771
Average Area Under the Viability Curve (AUC), AUC norm value ([4]; SK4 cells (SEM subtype)): −0.2415
Average Area Under the Viability Curve (AUC), AUC norm value ([5]; MKN45 cells (non-SEM subtype)): 0.5553
Average Area Under the Viability Curve (AUC), AUC norm value ([6]; Hs746T cells (SEM subtype)): −1.399
Average Area Under the Viability Curve (AUC), AUC norm value [7]: 0.8534
Average Area Under the Viability Curve (AUC), AUC norm value ([8]; SNU1750 cells (SEM subtype)): −0.9787
Average Area Under the Viability Curve (AUC), AUC norm value [9]: 1.562
Average Area Under the Viability Curve (AUC), AUC norm value [10]: −2.002
Average Area Under the Viability Curve (AUC), AUC norm value [11]: 0.5178
Average Area Under the Viability Curve (AUC), AUC norm value [12]: −0.4242
Average Area Under the Viability Curve (AUC), AUC norm value [13]: 1.245
Average Area Under the Viability Curve (AUC), AUC norm value ([14]; AGS cells (non-SEM subtype)): −0.131
Average Area Under the Viability Curve (AUC), AUC norm value [15]: 0.1391
Average Area Under the Viability Curve (AUC), AUC norm value ([16]; SNU668 cells (SEM subtype)): 1.899
Average Area Under the Viability Curve (AUC), AUC norm value [17]: 0.1464
Average Area Under the Viability Curve (AUC), AUC norm value [18]: 0.8592
Average Area Under the Viability Curve (AUC), AUC norm value ([19]; SNU484 cells (SEM subtype)): −0.7602
Average Area Under the Viability Curve (AUC), AUC norm value [20]: 1.747
Average Area Under the Viability Curve (AUC), AUC norm value [21]: −0.7065
Average Area Under the Viability Curve (AUC), AUC norm value [22]: −0.5586
Average Area Under the Viability Curve (AUC), AUC norm value [23]: 0.1004
Average Area Under the Viability Curve (AUC), AUC norm value ([24]; SNU216 cells (non-SEM subtype)): 0
Average Area Under the Viability Curve (AUC), AUC norm value [25]: 1.489
Average Area Under the Viability Curve (AUC), AUC norm value [26]: −0.3162
Average Area Under the Viability Curve (AUC), AUC norm value ([27]; YCC11 cells (SEM subtype)): −0.7607
Average Area Under the Viability Curve (AUC), AUC norm value [28]: −0.8995
Average Area Under the Viability Curve (AUC), AUC norm value [29]: 0.5098

C#Cc1cccc(Nc2ncnc3cc(OC)c(OCCCCCCC(=O)NO)cc23)c1 [CUDC-101]
area under the viability curve (AUC), normalized [1]: −0.4688
area under the viability curve (AUC), normalized [2]: 0.427
area under the viability curve (AUC), normalized [3]: 0.6267
area under the viability curve (AUC), normalized [4]: −0.04342
area under the viability curve (AUC), normalized [5]: 1.5
area under the viability curve (AUC), normalized [6]: 0.4609
area under the viability curve (AUC), normalized [7]: −0.1991
area under the viability curve (AUC), normalized [8]: −1.203
area under the viability curve (AUC), normalized [9]: 1.187
area under the viability curve (AUC), normalized [10]: −0.7885
area under the viability curve (AUC), normalized [11]: 0.9348
area under the viability curve (AUC), normalized [12]: −0.4289
area under the viability curve (AUC), normalized [13]: 0.3332
area under the viability curve (AUC), normalized [14]: −0.9569
area under the viability curve (AUC), normalized [15]: 0
area under the viability curve (AUC), normalized [16]: 0.9508
area under the viability curve (AUC), normalized [17]: −0.8807
area under the viability curve (AUC), normalized [18]: 1.8155
area under the viability curve (AUC), normalized [19]: 0.5831
area under the viability curve (AUC), normalized [20]: 0.7562
area under the viability curve (AUC), normalized [21]: −0.7663
area under the viability curve (AUC), normalized [22]: −0.301
area under the viability curve (AUC), normalized [23]: 0.683
area under the viability curve (AUC), normalized [24]: −0.5746
area under the viability curve (AUC), normalized [25]: −0.1084
area under the viability curve (AUC), normalized [26]: −0.5407
area under the viability curve (AUC), normalized [27]: 0.3451
area under the viability curve (AUC), normalized [28]: 0.1814
area under the viability curve (AUC), normalized [29]: −0.4217
